Results published in patent publication EP4741379A1, “CLASS OF PROGRAMMED CELL DEATH INHIBITORS, PREPARATION METHOD THEREFOR AND USE THEREOF” (SHANGHAI INSTITUTE OF ORGANIC CHEMISTRY, CHINESE ACADEMY OF …, priority 2023, dated 2025).
Where two headings read alike, the source gives them in different places.

Key:
L929 cells = test: TNF-induced programmed necrosis of L929 cells (Cell Titer-Glo viability); assay type: cell-based, mouse; conditions: for EC50: Mus musculus
Description: (§1) The biological test protocol is adopted to test effects of the compound on TNF-induced programmed necrosis of FADD (Fas-associated death domain)-deficient Jurkat cells and L929 cells.
(§2) Two different stimulation methods were used: treating with tumor necrosis factor (TNFα) alone, or treating with TNFα in combination of mitochondrial-derived cysteine-aspartate activator (SMAC) SM164. Cell viability was determined by measuring chemiluminescence values, thereby assessing the bioactivity of the compounds in inhibiting programmed cell necrosis.
(§3) Method: FADD-deficient Jurkat cells: FADD-deficient Jurkat cells (human peripheral blood leukemia T cell line) were cultured in vitro. After reaching logarithmic growth phase, cells were collected and centrifuged at 1000 rpm for 5 minutes. A supernatant was discarded. A cell concentration was adjusted to 2.5×10^5/mL, and cells were seeded into a 384-well plate at 40 µL per well. In the corresponding wells, 5 µL of SM164 (50 nM) and compounds diluted with cell culture medium were added. After pre-treatment at 37°C for 1 hour, 5 µL of TNFα (50 ng/mL) diluted with cell culture medium was added to each well as a stimulation group, while 5 µL of culture medium was added as a control group. After the plate was incubated in a cell culture incubator (37°C, 5% CO2) for 14 hours, 15 µL of Cell Titer-Glo solution was added to each well. Then, the plate was incubated at room temperature for 30 minutes. Luminescence was measured to assess intracellular ATP levels. Cell viability was set at 100% for unstimulated DMSO control wells. […] The plate was placed in a cell culture incubator (37°C, 5% CO2) and cultured for 12 hours. In the corresponding wells, 5 µL of SM164 (500 nM) and compounds diluted with cell culture medium were added. After pre-treatment at 37°C for 1 hour, 5 µL of TNFα (500 ng/mL) diluted with cell culture medium was added to the wells as a stimulation group, while 5 µL of culture medium was added as a control group. After the plate was incubated in the cell incubator (37°C, 5% CO2) for 14 hours, 15 µL of Cell Titer-Glo solution was added to each well. Then, the plate was incubated at room temperature for 30 minutes, and luminescence was measured to assess intracellular ATP levels. Cell viability was set at 100% for unstimulated DMSO control wells. EC50 values of the compounds were calculated using Prism GraphPad statistical software.

[1] = tested on: FADD-deficient Jurkat cells; test: TNF-induced programmed necrosis of FADD-deficient Jurkat cells (Cell Titer-Glo viability); assay type: cell-based, human; conditions: for EC50: Homo sapiens, Jurkat
Description: as §1, §2, §3

mouse derived RIPK1 = molecular target: T1, mouse derived RIPK1 (Mus musculus, UniProt Q60855); test: Inhibitory activity against mouse derived RIPK1 (statement only); conditions: in words
T1 sequence (Q60855 1-656): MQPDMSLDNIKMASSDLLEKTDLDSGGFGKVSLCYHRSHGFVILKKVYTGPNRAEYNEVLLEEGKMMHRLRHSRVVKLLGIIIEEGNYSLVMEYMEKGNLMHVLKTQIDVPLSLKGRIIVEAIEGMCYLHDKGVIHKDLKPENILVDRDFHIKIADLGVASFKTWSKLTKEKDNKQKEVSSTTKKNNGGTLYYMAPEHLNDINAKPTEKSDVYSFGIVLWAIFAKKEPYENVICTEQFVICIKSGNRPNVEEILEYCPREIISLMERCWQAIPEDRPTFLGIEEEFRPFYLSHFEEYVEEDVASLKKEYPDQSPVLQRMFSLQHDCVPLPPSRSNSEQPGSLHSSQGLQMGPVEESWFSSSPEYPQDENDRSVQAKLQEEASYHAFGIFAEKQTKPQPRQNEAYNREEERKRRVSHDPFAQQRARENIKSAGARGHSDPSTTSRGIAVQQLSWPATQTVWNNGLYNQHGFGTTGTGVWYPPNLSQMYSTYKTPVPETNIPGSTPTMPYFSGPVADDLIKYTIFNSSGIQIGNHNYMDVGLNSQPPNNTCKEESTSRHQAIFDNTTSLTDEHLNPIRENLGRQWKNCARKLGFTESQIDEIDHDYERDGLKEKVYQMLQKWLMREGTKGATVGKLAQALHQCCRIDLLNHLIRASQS

[2] = tested on: TNFα-induced systemic inflammatory response syndrome; test: TNFα-induced systemic inflammatory response syndrome in mice; assay type: in vivo; conditions: oral gavage 1 mg/kg, 20 minutes before TNFα tail vein injection
Excerpt: A biological test protocol was adopted as follows: systemic inflammatory response syndrome (SIRS), also known as an inflammatory storm, refers to a nonspecific systemic inflammatory response caused by severe infections, multiple trauma, burns, ischemia-reperfusion, acute pancreatitis, and other infectious or non-infectious injuries. Under this condition, a large number of inflammatory factors are released, and in severe cases, the body loses control over the inflammatory response, leading to multiple organ failure and even death. Tail vein injection of tumor necrosis factor TNFα can induce systemic inflammatory response syndrome in mice, causing a drop in body temperature and death of mice. Effects of the representative compound QY-18-26 on TNFα-induced systemic inflammatory response syndrome were tested by monitoring changes in body temperature and death in mice. A known RIPK1 inhibitor Nec-1s was used as a control.
Method: The compound to be tested was dissolved in 0.5% carboxymethyl cellulose at the required concentration one day in advance and sonicated overnight. […] Body temperature changes of mice were monitored using an infrared thermometer after injection. Effects of the compound were calculated using Prism GraphPad statistical software.

[3] = Brain penetration (brain/plasma drug concentrations) in rats; assay type: in vivo
Description: (§4) A biological test protocol was adopted to test brain/plasma drug concentrations of the compound in living mice and rats. To verify the brain penetration properties of the compounds of the present disclosure in vivo, a representative compound QY-18-26 was selected. Single administration via oral gavage (PO, 10 mg/kg) or intravenous injection (IV, 2 mg/kg) was used to test brain/plasma drug concentrations of the compound in mice (n = 3) at different time points. At the same time, single administration via oral gavage (PO, 5 mg/kg) was used to test brain/plasma drug concentrations in rats (n = 3) at different time points.

[4] = Pharmacokinetic properties in mice; assay type: in vivo
Description: A biological test protocol was adopted to test drug metabolism of the compound in living mice. To verify the pharmacokinetic properties of the compounds of the present disclosure in vivo, the representative compound QY-18-26 was selected. Single administration via oral gavage (PO, 10 mg/kg) or intravenous injection (IV, 1 mg/kg) was used to test the pharmacokinetic properties of the compound in mice (n = 3).

[5] = Brain penetration (brain/plasma drug concentrations) in mice; assay type: in vivo
Description: as §4

RIPK1 (1-330) protein = molecular target: T2, RIPK1 (1-330) protein (Homo sapiens, UniProt Q13546); test: RIPK1 kinase activity (ADP-Glo); assay type: biochemical; conditions: RIPK1 (1-330) 2 µM, 37°C, 2 hours; read-out: effective half-maximal inhibitory concentration
T2 construct: test effects of the compound QY-18-26 on kinase activity of RIPK1 (1-330) protein
T2 sequence (Q13546 1-330): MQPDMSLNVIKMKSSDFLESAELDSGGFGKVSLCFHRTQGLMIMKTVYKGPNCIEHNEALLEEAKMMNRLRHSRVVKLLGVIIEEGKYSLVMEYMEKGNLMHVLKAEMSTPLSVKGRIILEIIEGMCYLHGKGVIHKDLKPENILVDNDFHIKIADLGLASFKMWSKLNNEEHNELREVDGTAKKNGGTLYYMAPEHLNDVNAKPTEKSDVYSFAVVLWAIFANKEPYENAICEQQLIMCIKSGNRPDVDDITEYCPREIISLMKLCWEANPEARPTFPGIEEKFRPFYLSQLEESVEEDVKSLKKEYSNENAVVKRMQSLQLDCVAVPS
Description: A known clinical RIPK1 inhibitor SAR443122 was used as a control.
Method: Into a 384-well plate, RIPK1 (1-330) protein with a final concentration of 2 µM and ATP with a corresponding concentration (in 1X kinase buffer) with a final concentration of 5 µL were added. At least 3 replicates were set for each group and reacted at 37°C for 2 hours. 5 µL of ADP-Glo reagent was added to stop the kinase reaction and remove any remaining ATP in the reaction system. The plate was incubated at room temperature for 40 minutes, added with 10 µL of Kinase Detection Reagent, which was used to convert ADP to ATP and introduce luciferase and luciferin to detect ATP in the system, and reacted at room temperature for 1 hour. Luminescence was measured using a 7500 Fast Real-Time PCR System. IC50 values of compounds in inhibiting the kinase reaction were calculated using Prism GraphPad statistical software.

[6] = single dose, PO 10 mg/kg or IV 1 mg/kg

In the case of `CN1C(=O)[C@@H](NC(=O)c2nnc(Cc3ccccc3)[nH]2)COc2cccnc21` [SAR443122, reference compound], the EC50 (L929 cells; L929, read-out: EC50 (nM) L929 cells (mouse-derived) TNFα) is reported as greater than 1000 nM, the “programmed necroptosis inhibitory activity on mouse derived L929 cells” value (L929 cells; in words) is reported as “nearly inactive” and the EC50 ([1]; read-out: EC50 (nM) FADD^-/- Jurkat cells (human-derived) TNFα) is reported as 0.9 nM. For the same compound, the “inhibitory activity against mouse derived RIPK1” value (mouse derived RIPK1) was “very poor inhibitory activity”.
For `C[C@H](NC(=O)c1nnn(C)c1Cc1ccccc1)c1ccc(C#Cc2ccccn2)cc1` [QY-18-26, (S)-5-benzyl-1-methyl-N-(1-(4-(pyridin-2-ylethynyl)phenyl)ethyl)-1H-1,2,3-triazole-4-formamide], the “effect on TNFα-induced body temperature drop, inflammatory response, and death” value [2] was “effectively counteract”, the brain-plasma distribution ([3]; at 4 hours) was “remained stable” and the Kp ([3]; rat, brain, single dose PO 5 mg/kg, read-out: concentration in the brain as share of the concentration in plasma) was roughly 0.4. For the same compound, the brain drug concentration ([3]; single dose PO 5 mg/kg) was greater than 5 ng/g, the plasma concentration ([4]; oral gavage 10 mg/kg, for most of the 24-hour period) was greater than 5 ng/mL and the “bioavailability (F)” value [4, 6] was “very high”. For the same compound, the “exposure (AUC)” value [4, 6] was “very high”, the “maximum plasma concentration (Cmax)” value [4, 6] was “very high” and the “time to peak concentration” value [4, 6] was “rapidly reached a peak concentration”. For the same compound, the brain-plasma distribution ([5]; at 4 hours) was “remained stable”, the Kp ([5]; mouse, brain, single dose PO 10 mg/kg or IV 2 mg/kg, read-out: concentration in the brain as share of the concentration in plasma) was roughly 0.4 and the brain drug concentration ([5]; single dose PO 10 mg/kg or IV 2 mg/kg) was greater than 5 ng/g. The IC50 (RIPK1 (1-330) protein) was 6.4 nM, the EC50 (L929 cells; L929, stimulation with TNFα + SM164, read-out: EC50 (nM) L929 cells (mouse-derived) TNFα+ SM164) was less than 0.01 nM and the EC50 (L929 cells; L929, stimulation with TNFα alone, read-out: EC50 (nM) L929 cells (mouse-derived) TNFα) was less than 0.01 nM. The EC50 ([1]; stimulation with TNFα + SM164, read-out: EC50 (nM) FADD^-/- Jurkat cells (human-derived) TNFα+ SM164) was less than 0.01 nM, the EC50 ([1]; stimulation with TNFα alone, read-out: EC50 (nM) FADD^-/- Jurkat cells (human-derived) TNFα) was less than 0.01 nM and the “programmed necroptosis inhibitory activity compared to SAR443122” value ([1]; TNFα alone or TNFα + SM164, human derived FADD-deficient Jurkat cells) was “stronger”.
